Source: US20230035422A1, “METHODS FOR TREATING DISEASES BY TARGETING ONCOGENIC LIPIDS” (THE TRUSTEES OF COLUMBIA UNIVERSITY IN THE CITY OF NEW YORK, priority 2020, published 2023)

How the values were obtained:
[1] = system: breast cancer cell lines (high-ADCK3 vs low-ADCK3); assay: Breast cancer cell line panel viability with ferroptosis inducers (CellTiter-Glo); format: cell-based; settings: 2-fold dilution series, 72 hours
Description: Breast cancer cell lines were treated with ferroptosis inducers FIN56 (FIG. 2D) or RSL3 (FIG. 2E) in 2-fold dilution series for 72 hours. Cell viability was measured with CellTiter-Glo®. Ferroptosis-sensitive breast cancer cells are categorized as ‘high-ADCK3’ expressing (orange), while cells that are less sensitive to ferroptosis induction were the ones with ‘low-ADCK3’ (green).
A panel of 10 breast cancer cell lines was selected form the Broad Institute Cancer Cell Line Encyclopedia database (CCLE; https://portals.broadinsitute.org/ccle),based on their ADCK3 copy number and mRNA expression levels, to have a good representation of ADCK3-amplified cells (termed here as ‘high-ADCK3’), as well as a control group expressing normal levels of ADCK3 (termed here as ‘low-ADCK3’; FIG. 2A). To confirm a correlation between high ADCK3 gene/transcript expression and protein expression, ADCK3 levels were measured by western blot (FIG. 2B). Cells were divided into high-ADCK3 (orange in FIGS. 2A-2E) and low-ADCK3 (green in FIGS. 2A-2E) according to the protein expression level. […] High ADCK3 protein levels correlated with high CoQ10 abundance, measured by LC-MS (FIG. 2C). […]

[2] = system: SKBR3 cells overexpressing ADCK3-FLAG; assay: Ferroptosis induction in SKBR3 cells overexpressing ADCK3-FLAG (CellTiter-Glo); format: cell-based; settings: RSL3 10 or 20 nM, FIN56 78 or 156 nM, 48 h
Description: Viability was measured with CellTiter-Glo®.
ADCK3-FLAG was stably overexpressed in SKBR3 cells through retroviral infection. First, proper localization of the overexpressed protein to the mitochondria was validated by fluorescent microscopy. Similarly to the localization pattern of endogenous ADCK3 to the mitochondria, overexpressed ADCK3-FLAG co-localized with a MitoTracker fluorescent probe (FIG. 5A).

[3] = system: ADCK3 knockdown/knockout SKBR3 cells; assay: Ferroptosis induction in ADCK3 knockdown/knockout SKBR3 cells (CellTiter-Glo); format: cell-based; settings: for rescue of RSL3-induced death in siRNA ADCK3 knockdown cells: SKBR3, siRNA ADCK3, RSL3 48 h
Description: At 48 h after transfection, cells were treated with RSL3 in 2-fold dilution series for 48 h, in combination with ferrostatin-1 or idebenone. Viability was measured with CellTiter-Glo®. […] Stable CRISPR cells were treated with FIN56 in 2-fold dilution series in combination with ferrostatin-1, for 48 h. Viability was measured with CellTiter-Glo®. […] (grey) cells were treated with RSL3 or FIN56 in 2-fold dilution series in combination with 2 μM ferrostatin-1 for 48 h. Viability was measured with CellTiter-Glo®.

[4] = system: ADCK3; assay: Western blot of ADCK3 protein levels in SKBR3 cells; format: cell-based; settings: SKBR3, 50 nM SGC-GAK-1, 48 hours
Description: SKBR3 cells were treated with 50 nM SGC-GAK-1 or vehicle, for 48 h, and analyzed by western blot for ADCK3 and GAPDH levels.
(§1) Thus, it was concluded that SGC-GAK-1 induces ferroptosis in ADCK3-amplified cells, perhaps by reducing the levels of ADCK3 and CoQ10.

[5] = system: CoQ10; assay: CoQ10 abundance in SKBR3 cells by LC/MS; format: cell-based; settings: SKBR3, 50 nM SGC-GAK-1, 48 hours
Description: CoQ10 abundance in SKBR3 cells treated as in FIG. 6A, measured by LC/MS.
as §1

[6] = system: SKBR3 cells; assay: SKBR3 cell death / viability on SGC-GAK-1 treatment; format: cell-based
Description: as §1

[7] = system: SKBR3 cells; assay: Cellular lipid-ROS by C11-BODIPY flow cytometry; format: cell-based
Description: as §1

[8] = molecular target: ADCK3 (Homo sapiens, UniProt Q8NI60); settings: reported, Asquith et al. 2019; cited from earlier work
Chain of ADCK3 (Homo sapiens, UniProt Q8NI60) (Q8NI60 163-647): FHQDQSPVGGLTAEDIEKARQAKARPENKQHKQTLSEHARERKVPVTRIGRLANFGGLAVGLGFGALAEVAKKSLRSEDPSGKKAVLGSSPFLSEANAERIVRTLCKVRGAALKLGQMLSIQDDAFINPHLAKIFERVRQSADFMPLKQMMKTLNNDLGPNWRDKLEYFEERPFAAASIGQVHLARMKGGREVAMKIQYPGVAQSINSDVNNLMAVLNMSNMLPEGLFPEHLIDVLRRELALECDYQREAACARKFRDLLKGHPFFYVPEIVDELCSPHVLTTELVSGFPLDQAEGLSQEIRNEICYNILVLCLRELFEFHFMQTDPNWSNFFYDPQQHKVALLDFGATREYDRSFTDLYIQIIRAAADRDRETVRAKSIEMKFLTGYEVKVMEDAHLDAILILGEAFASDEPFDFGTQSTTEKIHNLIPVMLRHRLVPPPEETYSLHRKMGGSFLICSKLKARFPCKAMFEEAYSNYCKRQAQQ

[9] = system: triple-negative breast cancer; settings: cited from earlier work

## O=S(=O)(NC1CCCCC1)c1ccc2c(c1)C(=NO)c1cc(S(=O)(=O)NC3CCCCC3)ccc1-2 [FIN56]
[1]
  sensitivity to ferroptosis induction of cells with amplified ADCK3 expression: distinct higher sensitivity
[2]
  cytotoxic effect in cells overexpressing ADCK3 compared to control: statistically significant reduction in cytotoxic effect

## COC(=O)c1ccc([C@@H]2c3[nH]c4ccccc4c3C[C@@H](C(=O)OC)N2C(=O)CCl)cc1 [RSL3]
[1]
  sensitivity to ferroptosis induction of cells with amplified ADCK3 expression: distinct higher sensitivity
[3]; SKBR3, siRNA ADCK3 vs non-targeting control, 48 h treatment
  sensitivity of siRNA ADCK3 knockdown cells to ferroptosis inducer: increased the sensitivity
[2]
  cytotoxic effect in cells overexpressing ADCK3 compared to control: statistically significant reduction in cytotoxic effect

## COc1cc(Nc2ccnc3ccc(Br)cc23)cc(OC)c1OC [SGC-GAK-1]
[4]
  ADCK3 protein levels: marked reduction in ADCK3 protein levels
[5]
  CoQ10 levels: reduced CoQ10 levels
[6]; SGC-GAK-1 combined with RSL3
  sensitivity of SKBR3 cells to RSL3-mediated ferroptotic death: further potentiated SKBR3 cells to RSL3-mediated ferroptotic death
[6]; SKBR3 cells, with or without ferrostatin-1
  cell death induced by SGC-GAK-1 alone: induced cell death that was rescued by the ferroptosis inhibitor ferrostatin-1
[7]; SKBR3, 50 nM SGC-GAK-1, 48 h, C11-BODIPY
  lipid-ROS: increase in lipid-ROS
[8]
  inhibitory activity against ADCK3: nanomolar inhibitory activity

## CCOC(=O)c1ccc(NC2CCCCC2)c(N)c1 [ferrostatin-1]
[6]; SKBR3, 1 µM ferrostatin-1
  rescue of SGC-GAK-1-induced ferroptotic death: rescued
[7]; SKBR3, 2 µM ferrostatin-1
  rescue of SGC-GAK-1-induced increase in cellular lipid-ROS: rescued
[3]; SKBR3, RSL3 or FIN56 with ferrostatin-1 (2 µM in shRNA cells)
  rescue of death and sensitization in CRISPR/shRNA ADCK3 knockout cells: rescued
[3]
  rescue of RSL3-induced death in siRNA ADCK3 knockdown cells: rescued

## COC1=C(OC)C(=O)C(CCCCCCCCCCO)=C(C)C1=O [idebenone]
[3]
  rescue of RSL3-induced death in siRNA ADCK3 knockdown cells: rescued

## Tecentriq: approved in combination with protein-bound paclitaxel for unresectable triple-negative breast cancer whose tumors express PD-L1
[9]; in vivo
  patients who experienced adverse reactions: greater than 20%
[9]; with protein-bound paclitaxel, PD-L1 expressing unresectable triple-negative breast cancer
  median progression-free survival: 7.4 months
[9]; with protein-bound paclitaxel, from 4.8 to 7.4
  extension of median progression-free survival: 2.6 months
